Experimental findings from publication PMC8942775, “Lipidated Calcitonin Gene-Related Peptide (CGRP) Peptide Antagonists Retain CGRP Receptor Activity and Attenuate CGRP Action In Vivo” (Frontiers in Pharmacology, 2022) are described below.

One test addresses T1, mAMY1 receptor (Mus musculus, UniProt Q60755+Q9WTJ5).
T1 sequence (Q60755 42-496 isoform Q60755-2 limits assumed): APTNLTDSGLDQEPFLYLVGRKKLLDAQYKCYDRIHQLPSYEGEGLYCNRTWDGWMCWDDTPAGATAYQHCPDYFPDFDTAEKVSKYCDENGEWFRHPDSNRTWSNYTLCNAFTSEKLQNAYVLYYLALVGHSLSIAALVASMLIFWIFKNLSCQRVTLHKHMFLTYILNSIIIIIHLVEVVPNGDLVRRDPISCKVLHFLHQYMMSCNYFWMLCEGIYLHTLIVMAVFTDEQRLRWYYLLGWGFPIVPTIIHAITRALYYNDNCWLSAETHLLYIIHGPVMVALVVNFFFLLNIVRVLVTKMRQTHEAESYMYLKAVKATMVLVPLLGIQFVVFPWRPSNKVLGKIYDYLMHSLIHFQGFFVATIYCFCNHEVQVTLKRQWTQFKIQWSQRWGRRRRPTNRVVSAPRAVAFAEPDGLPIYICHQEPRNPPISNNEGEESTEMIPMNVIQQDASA
T1 sequence (Q9WTJ5 27-148): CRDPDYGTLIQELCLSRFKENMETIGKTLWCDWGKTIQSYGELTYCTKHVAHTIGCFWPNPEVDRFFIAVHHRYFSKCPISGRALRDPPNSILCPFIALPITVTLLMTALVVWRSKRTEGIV
Briefly: cell-based. As to conditions: SEM.

For a further test, the target named is mCGRP receptor (Mus musculus, UniProt Q9R1W5+Q9WTJ5). The test is described as follows: cell-based. As to conditions: SEM.
mCGRP receptor, sequence (Q9R1W5 23-463, one chain of several): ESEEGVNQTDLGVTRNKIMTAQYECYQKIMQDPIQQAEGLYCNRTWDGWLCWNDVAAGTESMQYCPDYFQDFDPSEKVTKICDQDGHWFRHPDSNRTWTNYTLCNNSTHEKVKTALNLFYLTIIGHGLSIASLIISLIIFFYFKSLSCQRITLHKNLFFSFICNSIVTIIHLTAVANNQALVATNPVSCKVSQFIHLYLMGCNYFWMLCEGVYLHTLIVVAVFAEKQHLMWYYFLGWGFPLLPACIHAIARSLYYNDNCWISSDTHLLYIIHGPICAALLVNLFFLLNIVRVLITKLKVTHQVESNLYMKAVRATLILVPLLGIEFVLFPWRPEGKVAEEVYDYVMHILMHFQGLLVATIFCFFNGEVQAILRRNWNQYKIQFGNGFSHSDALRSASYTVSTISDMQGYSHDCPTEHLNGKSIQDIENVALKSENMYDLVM

Protocol for mAMY1 receptor: (§1) Cells were grown in a humidified incubator at 37°C and 5% CO2 and seeded into 96-well plates at a density of 20,000 cells/well. The following day, Cos-7 cells were transiently transfected using Polyethylenimine (PEI) using a 1:1 ratio of receptor:RAMP DNA.
(§2) Transfected Cos-7 cells were incubated with agonist in the presence or absence of antagonist at 37°C for 15 min. cAMP production was terminated by aspirating all the media in the wells, followed by the addition of 50 μl of ice-cold ethanol.
(§3) The Hill slope was constrained to one following agonist analyses. The Schild slope was also constrained to one. The pA2 and pKB values were obtained from the Schild analysis. For washout experiments, the same method of analysis was applied to the antagonists, but with minor revisions. The Schild analysis relied on the matched control agonist curves i.e. those derived from the same experimental conditions as the agonist + antagonist curves. Normalization was also specific to the matched control agonist curves.
(§4) Mean pEC50, pKB and pA2 values from at least three independent experiments before normalization were also presented as mean ± SEM. pEC50, pKB and pA2 values from independent experiments were grouped and compared by unpaired Student’s t-test or by one-way ANOVA. […]
Protocol for mCGRP receptor: as §1, §2, §3, §4

Regarding `CC(C)C[C@H](NC(=O)CNC(=O)[C@H](C)NC(=O)[C@H](CC(C)C)NC(=O)[C@H](CCCNC(=N)N)NC(=O)[C@H](Cc1cnc[nH]1)NC(=O)[C@@H](NC(=O)[C@@H](N)C(C)C)[C@@H](C)O)C(=O)N[C@@H](CC(C)C)C(=O)N[C@@H](CO)C(=O)N[C@@H](CCCNC(=N)N)C(=O)N[C@@H](CO)C(=O)NCC(=O)NCC(=O)N[C@H](C(=O)N[C@H](C(=O)N[C@@H](CCCCN)C(=O)N[C@@H](CC(N)=O)C(=O)N[C@@H](CC(N)=O)C(=O)N[C@@H](Cc1ccccc1)C(=O)N[C@H](C(=O)N1CCC[C@H]1C(=O)N[C@H](C(=O)N[C@@H](CC(N)=O)C(=O)N[C@H](C(=O)NCC(=O)N[C@@H](CO)C(=O)N[C@@H](CCCCN)C(=O)N[C@@H](C)C(=O)N[C@@H](Cc1ccccc1)C(N)=O)C(C)C)[C@@H](C)O)C(C)C)C(C)C)C(C)C` [αCGRP8-37], the results for the Kb on mAMY1 receptor and at mCGRP receptor were 24.5 nM and 1 nM, respectively.
